# Columns and labels:
# Assay type in all cases: functional
# Tetranychus urticae = assay: Acaricidal activity against Tetranychus urticae (two-spotted spider mite) in compound treated kidney bean leaf assessed as larvicidal activity
# Nephotettix cincticeps = assay: Insecticidal activity against Nephotettix cincticeps (green rice leafhopper) in compound treated rice seedlings assessed as mortality at 500 ppm
# Plutella xylostella = assay: Insecticidal activity against Plutella xylostella (diamondback moth) in compound treated radish leaf assessed as mortality at 500 ppm
# Myzus persicae = assay: Insecticidal activity against Myzus persicae (green peach aphid) in compound treated radish leaf assessed as mortality at 500 ppm
Compound,LC50 (Tetranychus urticae),mortality at 500 ppm (Nephotettix cincticeps),mortality at 500 ppm (Plutella xylostella),mortality at 500 ppm (Myzus persicae)
CCOc1cc(Br)ccc1C1COC(c2c(F)cccc2F)=N1 (centres undefined),0.1 µg/mL,100%,10%,0%
Cc1ccc(C2COC(c3c(F)cccc3F)=N2)cc1C (centres undefined),1 µg/mL,85%,0%,100%
CCCCCCc1ccc(C2COC(c3c(F)cccc3F)=N2)cc1F (centres undefined),0.1 µg/mL,0%,0%,0%
CCCCCCc1ccc(C2COC(c3c(F)cccc3F)=N2)cc1Cl (centres undefined),0.1 µg/mL,0%,0%,0%
Fc1ccc(C2COC(c3c(F)cccc3F)=N2)cc1F (centres undefined),0.1 µg/mL,0%,0%,0%
Fc1ccc(C2COC(c3c(F)cccc3F)=N2)cc1Cl (centres undefined),0.1 µg/mL,10%,60%,100%
Fc1cc(C2COC(c3c(F)cccc3F)=N2)ccc1Cl (centres undefined),0.01 µg/mL,60%,35%,100%
Fc1cccc(F)c1C1=NC(c2ccc(Cl)c(Cl)c2)CO1 (centres undefined),0.1 µg/mL,0%,60%,100%
CCOc1cc(C(C)C)ccc1C1COC(c2c(F)cccc2F)=N1 (centres undefined),0.01 µg/mL,100%,60%,100%
CCCOc1cc(C(C)C)ccc1C1COC(c2c(F)cccc2F)=N1 (centres undefined),< 0.001 µg/mL,100%,85%,100%
COc1cc(C(C)(C)C)ccc1C1COC(c2c(F)cccc2F)=N1 (centres undefined),0.001 µg/mL,35%,85%,100%
CCCOc1cc(C(C)(C)C)ccc1C1COC(c2c(F)cccc2F)=N1 (centres undefined),0.001 µg/mL,60%,85%,100%
CCCCOc1cc(C(C)(C)C)ccc1C1COC(c2c(F)cccc2F)=N1 (centres undefined),0.01 µg/mL,0%,35%,100%
CCCCCCOc1cc(C(C)(C)C)ccc1C1COC(c2c(F)cccc2F)=N1 (centres undefined),0.1 µg/mL,60%,100%,10%
CCCCCc1ccc(C2COC(c3c(F)cccc3F)=N2)c(OCC)c1 (centres undefined),< 0.001 µg/mL,100%,35%,85%
CCCCCc1ccc(C2COC(c3c(F)cccc3F)=N2)c(OCCC)c1 (centres undefined),0.001 µg/mL,60%,85%,85%
CCCCCCCCc1ccc(C2COC(c3c(F)cccc3F)=N2)c(OC)c1 (centres undefined),0.01 µg/mL,0%,85%,100%
CCCCCCCCCc1ccc(C2COC(c3c(F)cccc3F)=N2)c(OC)c1 (centres undefined),0.001 µg/mL,10%,100%,100%
CCCCCCCCCCc1ccc(C2COC(c3c(F)cccc3F)=N2)c(OC)c1 (centres undefined),0.01 µg/mL,10%,85%,100%

Compound,LC50 (Tetranychus urticae),mortality at 500 ppm (Nephotettix cincticeps),mortality at 500 ppm (Plutella xylostella),mortality at 500 ppm (Myzus persicae)
CCc1ccc(C2COC(c3c(F)cccc3F)=N2)c(F)c1 (centres undefined),0.1 µg/mL,0%,0%,0%
CCCCCCc1ccc(C2COC(c3c(F)cccc3F)=N2)c(F)c1 (centres undefined),< 0.001 µg/mL,60%,100%,100%
CCCCCCCc1ccc(C2COC(c3c(F)cccc3F)=N2)c(F)c1 (centres undefined),< 0.001 µg/mL,0%,100%,100%
CCCCCCCCc1ccc(C2COC(c3c(F)cccc3F)=N2)c(F)c1 (centres undefined),< 0.001 µg/mL,0%,100%,100%
CCCCCCCCCCc1ccc(C2COC(c3c(F)cccc3F)=N2)c(F)c1 (centres undefined),0.001 µg/mL,0%,100%,10%
CCCCCCCCCCCCc1ccc(C2COC(c3c(F)cccc3F)=N2)c(F)c1 (centres undefined),0.01 µg/mL,0%,100%,0%
CCc1ccc(C2COC(c3c(F)cccc3F)=N2)c(Cl)c1 (centres undefined),0.001 µg/mL,0%,0%,0%
CC(C)Cc1ccc(C2COC(c3c(F)cccc3F)=N2)c(Cl)c1 (centres undefined),< 0.001 µg/mL,60%,100%,100%
CCCCCCc1ccc(C2COC(c3c(F)cccc3F)=N2)c(Cl)c1 (centres undefined),< 0.001 µg/mL,100%,100%,100%
CCCCCCCCc1ccc(C2COC(c3c(F)cccc3F)=N2)c(Cl)c1 (centres undefined),< 0.001 µg/mL,0%,85%,100%
CCCCCCCCCCc1ccc(C2COC(c3c(F)cccc3F)=N2)c(Cl)c1 (centres undefined),0.1 µg/mL,0%,85%,0%
CCCCCCCCCCCCc1ccc(C2COC(c3c(F)cccc3F)=N2)c(Cl)c1 (centres undefined),0.1 µg/mL,0%,60%,0%
COc1cc(F)ccc1C1COC(c2c(F)cccc2F)=N1 (centres undefined),0.1 µg/mL,100%,10%,100%
CCOc1cc(F)ccc1C1COC(c2c(F)cccc2F)=N1 (centres undefined),0.001 µg/mL,100%,85%,100%
CCCCOc1cc(F)ccc1C1COC(c2c(F)cccc2F)=N1 (centres undefined),< 0.001 µg/mL,100%,85%,60%
Fc1ccc(C2COC(c3c(F)cccc3F)=N2)c(F)c1 (centres undefined),0.01 µg/mL,35%,85%,100%
Fc1ccc(C2COC(c3c(F)cccc3F)=N2)c(Cl)c1 (centres undefined),0.1 µg/mL,35%,0%,100%
Cc1cc(Cl)ccc1C1COC(c2c(F)cccc2F)=N1 (centres undefined),0.1 µg/mL,35%,10%,100%
COc1cc(Cl)ccc1C1COC(c2c(F)cccc2F)=N1 (centres undefined),0.1 µg/mL,100%,10%,100%

Compound,LC50 (Tetranychus urticae),mortality at 500 ppm (Nephotettix cincticeps),mortality at 500 ppm (Plutella xylostella),mortality at 500 ppm (Myzus persicae)
CCOc1cc(Cl)ccc1C1COC(c2c(F)cccc2F)=N1 (centres undefined),0.1 µg/mL,100%,100%,100%
Fc1cc(Cl)ccc1C1COC(c2c(F)cccc2F)=N1 (centres undefined),< 0.001 µg/mL,0%,0%,100%
Fc1cccc(F)c1C1=NC(c2ccc(Cl)cc2Cl)CO1 (centres undefined),0.01 µg/mL,60%,60%,100%
CCCCCCCCCCCCCCOc1ccc(C2COC(c3c(F)cccc3F)=N2)cc1 (centres undefined),0.01 µg/mL,10%,85%,60%
CSc1ccc(C2COC(c3c(F)cccc3F)=N2)cc1 (centres undefined),0.1 µg/mL,0%,0%,100%
C[S+]([O-])c1ccc(C2COC(c3c(F)cccc3F)=N2)cc1 (centres undefined),10 µg/mL,0%,60%,60%
CS(=O)(=O)c1ccc(C2COC(c3c(F)cccc3F)=N2)cc1 (centres undefined),100 µg/mL,0%,60%,85%
CC(C)Sc1ccc(C2COC(c3c(F)cccc3F)=N2)cc1 (centres undefined),0.1 µg/mL,10%,10%,85%
CCCCCCCCCSc1ccc(C2COC(c3c(F)cccc3F)=N2)cc1 (centres undefined),0.01 µg/mL,0%,85%,60%
Fc1cccc(F)c1C1=NC(c2ccc(Br)cc2)CO1 (centres undefined),0.001 µg/mL,10%,35%,100%
Fc1cccc(F)c1C1=NC(c2ccc(C(F)(F)F)cc2)CO1 (centres undefined),0.01 µg/mL,60%,85%,100%
Fc1cccc(F)c1C1=NC(c2ccc(OC(F)(F)F)cc2)CO1 (centres undefined),0.001 µg/mL,35%,85%,100%
Fc1cccc(F)c1C1=NC(c2ccc(OCC(F)(F)F)cc2)CO1 (centres undefined),< 0.001 µg/mL,100%,35%,100%
Oc1ccc(C2COC(c3c(F)cccc3F)=N2)cc1 (centres undefined),10 µg/mL,60%,10%,0%
CN(C)c1ccc(C2COC(c3c(F)cccc3F)=N2)cc1 (centres undefined),10 µg/mL,0%,0%,85%
C[Si](C)(C)c1ccc(C2COC(c3c(F)cccc3F)=N2)cc1 (centres undefined),< 0.001 µg/mL,60%,100%,100%
Cc1ccc(C2COC(c3c(F)cccc3F)=N2)c(C)c1 (centres undefined),10 µg/mL,100%,35%,100%
CCCCCCCCc1ccc(C2COC(c3c(F)cccc3F)=N2)c(C)c1 (centres undefined),< 0.001 µg/mL,100%,100%,100%

# Source: ChEMBL document CHEMBL3045663, “Synthesis and Activity of Novel Acaricidal/Insecticidal 2, 4-Diphenyl-1, 3-oxazolines” (J Pestic Sci, 2002)
